ChEMBL document CHEMBL4138123, “Design, synthesis and biological evaluation of novel pyrazolochalcones as potential modulators of PI3K/Akt/mTOR pathway and inducers of apoptosis in breast cancer cells” (Eur J Med Chem, 2017)
The source made the active and inactive calls. No cut-off for these calls is given here.

Assays:
MCF7 [1] = experiment: Upregulation of PTEN mRNA expression in human MCF7 cells at 2 uM after 48 hrs by qRT-PCR analysis; format: functional, cell-based
SF-295 [2] = experiment: Cytotoxicity against human SF295 cells assessed as cell growth at 100 uM after 48 hrs by sulforhodamine B assay relative to control; format: functional; conditions: SF-295, 48 h, read-out: Activity
SNB-75 [3] = experiment: Cytotoxicity against human SNB75 cells assessed as cell growth at 100 uM after 48 hrs by sulforhodamine B assay relative to control; format: functional; conditions: SNB-75, 48 h, read-out: Activity
SF-295 [4] = experiment: Cytotoxicity against human SF295 cells assessed as cell growth at 1 uM after 48 hrs by sulforhodamine B assay relative to control; format: functional; conditions: SF-295, 48 h, read-out: Activity
MCF7 [5] = experiment: Downregulation of Akt protein expression in human MCF7 cells at 2 uM after 48 hrs by Alexa/DAPI staining-based immunofluorescence analysis; format: functional, cell-based
SNB-75 [6] = experiment: Cytotoxicity against human SNB75 cells assessed as cell growth at 1 uM after 48 hrs by sulforhodamine B assay relative to control; format: functional; conditions: SNB-75, 48 h, read-out: Activity
SF-295 [7] = experiment: Cytotoxicity against human SF295 cells assessed as cell growth at 10 uM after 48 hrs by sulforhodamine B assay relative to control; format: functional; conditions: SF-295, 48 h, read-out: Activity
SF-295 [8] = experiment: Cytotoxicity against human SF295 cells assessed as cell growth at 0.1 uM after 48 hrs by sulforhodamine B assay relative to control; format: functional; conditions: SF-295, 48 h, read-out: Activity
SNB-75 [9] = experiment: Cytotoxicity against human SNB75 cells assessed as cell growth at 10 uM after 48 hrs by sulforhodamine B assay relative to control; format: functional; conditions: SNB-75, 48 h, read-out: Activity
CAKI-1 [10] = experiment: Cytotoxicity against human Caki1 cells assessed as cell growth at 1 uM after 48 hrs by sulforhodamine B assay relative to control; format: functional; conditions: CAKI-1, 48 h, read-out: Activity
CAKI-1 [11] = experiment: Cytotoxicity against human Caki1 cells assessed as cell growth at 10 uM after 48 hrs by sulforhodamine B assay relative to control; format: functional; conditions: CAKI-1, 48 h, read-out: Activity
SNB-75 [12] = experiment: Cytotoxicity against human SNB75 cells assessed as cell growth at 0.1 uM after 48 hrs by sulforhodamine B assay relative to control; format: functional; conditions: SNB-75, 48 h, read-out: Activity
SNB-75 [13] = experiment: Cytotoxicity against human SNB75 cells assessed as growth inhibition after 48 hrs by sulforhodamine B assay; format: functional; conditions: SNB-75, 48 h
CAKI-1 [14] = experiment: Cytotoxicity against human Caki1 cells assessed as cell growth at 100 uM after 48 hrs by sulforhodamine B assay relative to control; format: functional; conditions: CAKI-1, 48 h, read-out: Activity
MCF7 [15] = experiment: Upregulation of BAX mRNA expression in human MCF7 cells at 2 uM after 48 hrs by qRT-PCR analysis; format: functional, cell-based
MCF7 [16] = experiment: Downregulation of Akt protein expression in human MCF7 cells at 2 uM after 24 hrs by Western blot analysis; format: functional, cell-based
MCF7 [17] = experiment: Downregulation of Akt1 mRNA expression in human MCF7 cells at 2 uM after 48 hrs by qRT-PCR analysis; format: functional, cell-based
CAKI-1 [18] = experiment: Cytotoxicity against human Caki1 cells assessed as cell growth at 0.01 uM after 48 hrs by sulforhodamine B assay relative to control; format: functional; conditions: CAKI-1, 48 h, read-out: Activity
CAKI-1 [19] = experiment: Cytotoxicity against human Caki1 cells assessed as cell growth at 0.1 uM after 48 hrs by sulforhodamine B assay relative to control; format: functional; conditions: CAKI-1, 48 h, read-out: Activity
SF-295 [20] = experiment: Cytotoxicity against human SF295 cells assessed as cell growth at 0.01 uM after 48 hrs by sulforhodamine B assay relative to control; format: functional; conditions: SF-295, 48 h, read-out: Activity
MCF7 [21] = experiment: Downregulation of PI3K mRNA expression in human MCF7 cells at 2 uM after 48 hrs by qRT-PCR analysis; format: functional, cell-based
MCF7 [22] = experiment: Induction of intrinsic apoptosis in human MCF7 cells assessed as effect on mitochondrial membrane depolarization at 2 uM after 18 hrs by DiOC6 staining-based FACS analysis (reference value: 2%); format: functional
SNB-75 [23] = experiment: Cytotoxicity against human SNB75 cells assessed as cell growth at 0.01 uM after 48 hrs by sulforhodamine B assay relative to control; format: functional; conditions: SNB-75, 48 h, read-out: Activity
MCF7 [24] = experiment: Inhibition of PI3K in human MCF7 cells assessed as increase in GSK-3beta phosphorylation at Ser9 at 2 uM after 24 hrs by Western blot analysis; format: cell-based
CAKI-1 [25] = experiment: Cytotoxicity against human Caki1 cells assessed as growth inhibition after 48 hrs by sulforhodamine B assay; format: functional; conditions: CAKI-1, 48 h
SF-295 [26] = experiment: Cytotoxicity against human SF295 cells assessed as growth inhibition after 48 hrs by sulforhodamine B assay; format: functional; conditions: SF-295, 48 h

SMILES: COc1ccc(-c2cc(/C=C/C(=O)c3ccc(OC)c(OC)c3)[nH]n2)cc1
- Activity (MCF7 [1]): Active
- growth at 100 µM (SF-295 [2]): -83%
- growth at 100 µM (SNB-75 [3]): -100%
- growth at 1 µM (SF-295 [4]): 88%
- Activity (MCF7 [5]): Active
- growth at 1 µM (SNB-75 [6]): 74%
- growth at 10 µM (SF-295 [7]): -33%
- growth at 0.1 µM (SF-295 [8]): 97%
- growth at 10 µM (SNB-75 [9]): -53%
- growth at 1 µM (CAKI-1 [10]): 77%
- growth at 10 µM (CAKI-1 [11]): -64%
- growth at 0.1 µM (SNB-75 [12]): 79%
- GI50 (SNB-75 [13]): 1.55 µM
- LC50 (concentration killing 50% of cells) (SNB-75 [13]): 9.51 µM
- TGI (SNB-75 [13]): 3.84 µM
- growth at 100 µM (CAKI-1 [14]): -70%
- Activity (MCF7 [15]): Active
- Activity (MCF7 [16]): Active
- Activity (MCF7 [17]): Active
- growth at 0.01 µM (CAKI-1 [18]): 98%
- growth at 0.1 µM (CAKI-1 [19]): 96%
- growth at 0.01 µM (SF-295 [20]): 98%
- Activity (MCF7 [21]): Active
- Activity (MCF7 [22]): 26%
- growth at 0.01 µM (SNB-75 [23]): 88%
- Activity call (increase in GSK-3beta Ser9 phosphorylation) (MCF7 [24]): Active
- GI50 (CAKI-1 [25]): 1.55 µM
- LC50 (CAKI-1 [25]): 7.96 µM
- TGI (CAKI-1 [25]): 3.52 µM
- GI50 (SF-295 [26]): 2.08 µM
- LC50 (SF-295 [26]): 22 µM
- TGI (SF-295 [26]): 5.37 µM
